The results in this text go back to ChEMBL document CHEMBL6109138 (J Med Chem, 2025).

≈ marks a conversion by molar mass, not a printed value.

The target in one data set is D(2) dopamine receptor (Homo sapiens, UniProt P14416). In words: Displacement of [3H]N-methylspiperone from human D2L receptor extracted from HEK293 cell membrane assessed as inhibition constant incubated for 1 hrs by radioligand competitive binding based scintillation counter analysis. It is filed as cell membranes. For orientation: In a radioligand displacement assay an active substance lowers the binding of a labelled ligand.

The test system of data set [1] is U-87 MG. In words: Growth inhibition of human U-87 MG cells incubated for 48 hrs by SRB assay. The class given is functional, U-87MG ATCC. Background: Sulforhodamine B stains cellular protein and so reports cell mass.
In data set [2] the test system is U-87 MG. In words: Antitumor activity against human U-87 MG cells assessed as total growth inhibition incubated for 48 hrs by SRB assay. The class given is functional, U-87MG ATCC.
Data set [3] has as its system T98G. In words: Growth inhibition of human T98G cells incubated for 48 hrs by SRB assay. It is filed as functional.
Data set [4] deals with T98G. In words: Antitumor activity against human T98G cells assessed as total growth inhibition incubated for 48 hrs by SRB assay. It is filed as functional.
Data set [5] deals with U-251. Briefly: Growth inhibition of human U-251MG cells incubated for 48 hrs by SRB assay. It is filed as functional.
Data set [6] has as its system U-251. In words: Antitumor activity against human U-251MG cells assessed as total growth inhibition incubated for 48 hrs by SRB assay. The class given is functional.
Data set [7] deals with U-251. In words: Antitumor activity against human U-251MG cells assessed as lethal concentration incubated for 48 hrs by SRB assay. It is filed as functional. Conditions: read-out: LC50 (the source's name).
The nature of data set [8]: Kinetic solubility of compound pH 7.4. It is filed as physicochemical. Conditions: buffer, read-out: Kinetic_solubility.
Data set [9] in a line: Protein binding in human plasma assessed as unbound fraction at 0.5 uM. It is filed as ADME, cell-free.
Data set [10] is described as follows: Protein binding in mouse plasma assessed as unbound fraction at 0.5 uM. The class given is ADME, cell-free.
Data set [11] can be described thus: Metabolic stability in human liver microsomes assessed as intrinsic clearance measured per mg protein. It is filed as ADME, Microsome. As to conditions: read-out: CLH. A general note: Liver microsomes are vesicles of endoplasmic reticulum, rich in cytochrome P450 enzymes.
A short description of data set [12]: Metabolic stability in human liver microsomes assessed as intrinsic clearance measured per gram liver. The class given is ADME, Microsome.
Data set [13] can be described thus: Metabolic stability in human liver microsomes assessed as half-life. The class given is ADME, Microsome.
The nature of data set [14]: Metabolic stability in mouse liver microsomes assessed as intrinsic clearance measured per mg protein. It is filed as ADME, Microsome. As to conditions: read-out: CLH.
Data set [15] in a line: Metabolic stability in mouse liver microsomes assessed as intrinsic clearance measured per gram liver. The class given is ADME, Microsome.
Data set [16] is described as follows: Metabolic stability in mouse liver microsomes assessed as half-life. It is filed as ADME, Microsome.
Data set [17] can be described thus: Apparent passive permeability across apical to basolateral side in MDCKII-MDR1 cells. It is filed as ADME, cell-based, Canis lupus familiaris. Conditions: dog, MDCK-MDR1.
A short description of data set [18]: Apparent passive permeability across basolateral to apical side in MDCKII-MDR1 cells. It is filed as ADME, cell-based, Canis lupus familiaris. As to conditions: dog, MDCK-MDR1.
For data set [19], the system named is U-87 MG. Briefly: Antitumor activity against human U-87 MG cells assessed as lethal concentration incubated for 48 hrs by SRB assay. It is filed as functional, U-87MG ATCC.
Data set [20] deals with T98G. In words: Antitumor activity against human T98G cells assessed as lethal concentration incubated for 48 hrs by SRB assay. The class given is functional.
Data set [21] concerns the target T1, D(4) dopamine receptor (Homo sapiens) (UniProt P21917).
T1 sequence (whole entry): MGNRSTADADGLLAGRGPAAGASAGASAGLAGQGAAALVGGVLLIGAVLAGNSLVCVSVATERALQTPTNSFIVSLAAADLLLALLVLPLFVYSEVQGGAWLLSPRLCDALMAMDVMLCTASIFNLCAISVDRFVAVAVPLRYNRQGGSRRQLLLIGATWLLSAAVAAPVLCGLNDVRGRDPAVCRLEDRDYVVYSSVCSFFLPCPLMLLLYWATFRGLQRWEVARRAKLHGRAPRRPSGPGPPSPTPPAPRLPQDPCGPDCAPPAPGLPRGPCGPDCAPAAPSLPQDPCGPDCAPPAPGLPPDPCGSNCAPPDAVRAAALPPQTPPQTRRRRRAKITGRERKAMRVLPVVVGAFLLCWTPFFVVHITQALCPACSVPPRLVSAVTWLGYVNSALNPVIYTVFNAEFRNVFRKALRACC
In words: Partial agonist activity at D4 receptor (unknown origin) assessed as bias factor by Gi activation assay versus beta-arrestin recruitment assay. Conditions: filed as partial agonist. The class given is functional.

Data set [22] deals with T1, D(4) dopamine receptor (Homo sapiens). In words: Partial agonist activity at D4 receptor (unknown origin) assessed as bias factor by beta-arrestin recruitment assay versus Gi activation assay. The class given is functional. Conditions: filed as partial agonist.

D(2) dopamine receptor, sequence (P14416 whole entry): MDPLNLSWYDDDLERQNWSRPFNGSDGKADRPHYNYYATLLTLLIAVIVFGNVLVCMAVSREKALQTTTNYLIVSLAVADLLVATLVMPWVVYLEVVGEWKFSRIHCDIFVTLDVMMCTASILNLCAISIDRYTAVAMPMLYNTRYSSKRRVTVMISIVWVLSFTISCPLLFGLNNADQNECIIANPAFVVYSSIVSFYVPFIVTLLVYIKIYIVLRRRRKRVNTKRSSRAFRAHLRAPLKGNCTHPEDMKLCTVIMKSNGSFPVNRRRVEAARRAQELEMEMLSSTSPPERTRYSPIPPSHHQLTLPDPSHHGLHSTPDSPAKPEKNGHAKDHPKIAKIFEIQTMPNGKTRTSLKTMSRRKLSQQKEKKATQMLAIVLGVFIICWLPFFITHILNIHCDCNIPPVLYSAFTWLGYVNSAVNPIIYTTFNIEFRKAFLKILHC

On to `COC(=O)c1ccc(N2CCN(CCCN3C(=O)CCc4ccccc43)CC2)cc1`, for which, on D(2) dopamine receptor, the Ki – broadly, a dissociation constant, usually derived from enzyme kinetics or from competition with a known ligand – is 46.8 µM.
For the molecule `Cn1nnc2c(C(N)=O)ncn2c1=O` [TEMOZOLOMIDE], the GI50 in the data set with U-87 MG [1], with T98G [3] and in the data set on U-251 [5] was above 200 µM each time. Further, the TGI in the data set on U-87 MG [2], with T98G [4] and in the data set on U-251 [6] was above 200 µM throughout. For the same molecule, the CC50 in the data set with U-251 [7] was above 200 µM.
On to `O=C1CCc2ccccc2N1CCCN1CCN(c2ccc(I)cc2)CC1`, for which the Ki on D(2) dopamine receptor was 3.24 µM.
Still for that read-out and setting: with `O=C1CCc2ccccc2N1CCCN1CCN(c2ccc(F)cc2)CC1` the figure was 4.07 µM; with `O=C1CCc2ccccc2N1CCCN1CCN(c2ccc(Br)cc2)CC1`, 3.16 µM; with `O=C1CCc2ccccc2N1CCCN1CCN(c2ccccc2-c2ccccc2)CC1`, 0.0759 µM.
As for `O=C1CCc2ccccc2N1CCCN1CCN(c2cccc3ccccc23)CC1`, the Ki at D(2) dopamine receptor is 0.0288 µM. Besides, in data set [8], the solubility kinetic amounted to 112 µM (≈ 44.7 µg/mL). The fraction unbound – broadly, the share of the substance not bound to proteins or other matrix – at 0.5 µM in data set [9] was found to be 0.23; in data set [10], 0.48. The values for the microsomal CLint in [11] and in data set [14] were 145 µL/min/mg and 288 µL/min/mg, respectively. For the same molecule, the values for the scaled CLint in data set [12] and in data set [15] were 5.78 mL/min/g and 13 mL/min/g, respectively. Moreover, the half-life (usually the time needed for the level to fall by half in the phase considered) in data set [13] turned out to be 9.58 min; in data set [16] it was 4.81 min. Moreover, in [17], the apparent permeability from apical to basolateral (Papp A→B) (commonly how fast a substance crosses the layer from the apical side) worked out at 1.84 ×10⁻⁶ cm/s. For the same molecule, the Papp B→A (commonly the apparent permeability from the basolateral to the apical side of a cell layer) in data set [18] stood at 3.47 ×10⁻⁶ cm/s. Further, the GI50 (in general, the concentration that inhibits growth by half) with U-87 MG [1] is 19.5 µM; with T98G [3] it was 12.2 µM; in the data set with U-251 [5], 22.6 µM. The total growth inhibition concentration (TGI) (in general, the concentration at which net growth stops) stood at 39.5 µM in the data set on U-87 MG [2], 32.1 µM in the data set on T98G [4] and 36.6 µM with U-251 [6]. Moreover, the LC50 (usually the concentration that kills 50% of the test population) in the data set on U-87 MG [19] was 80 µM. Further, in the data set with T98G [20], the LC50 (lethal concentration 50%) is 71 µM. Moreover, in the data set with U-251 [7], the CC50 stood at 78.7 µM.
With `O=C1CCc2ccccc2N1CCCN1CCN(c2ccc(C(F)(F)F)cc2)CC1`, the Ki at D(2) dopamine receptor is 29.5 µM.
Take `CC(C)N1C[C@H](NC(=O)N2Cc3ccccc3[C@@H]2C)[C@@H](C)C1`: the Activity in [21] stood at 17.
Consider `Cc1ccc2nc(CNCCCOc3ccccc3)cc(O)c2c1`, for which the Activity in data set [22] worked out at 7.4.
Turning to `O=C1CCc2ccccc2N1CCCN1CCN(c2ccc3ccccc3c2)CC1`, the Ki at D(2) dopamine receptor was 6.17 µM. For the same molecule, in data set [8], the solubility kinetic turned out to be 163 µM (≈ 65.1 µg/mL). The figures for the fraction unbound at 0.5 µM in data set [9] and in [10] were 0.41 and 0.71, respectively. The values for the microsomal CLint in data set [11] and in data set [14] were 73.8 µL/min/mg and 202 µL/min/mg, respectively. Also, the scaled CLint turned out to be 2.95 mL/min/g in [12] and 9.09 mL/min/g in data set [15]. Besides, the half-life in data set [13] was determined as 18.8 min; in data set [16], 6.86 min. The Papp A→B in [17] came to 1.77 ×10⁻⁶ cm/s. In data set [18], the Papp B→A was determined as 2.06 ×10⁻⁶ cm/s. In addition, the GI50 with U-87 MG [1] was 25.7 µM; in the data set on T98G [3] it was 20 µM; with U-251 [5], 26.5 µM. Moreover, the TGI in the data set with U-87 MG [2] came to 55.2 µM; in the data set on T98G [4] it was 42.1 µM; in the data set on U-251 [6], 63.2 µM. For the same molecule, the LC50 in the data set on U-87 MG [19] was 118 µM. The LC50 (lethal concentration 50%) with T98G [20] came out at 96.7 µM. For the same molecule, the CC50 in the data set with U-251 [7] worked out at 201 µM.
As to `O=C1CCc2ccccc2N1CCCN1CCN(c2ccc(Cl)cc2)CC1`, the figures for the GI50 in the data set on U-87 MG [1], with T98G [3] and in the data set on U-251 [5] were 42.6 µM, 21.9 µM and 61.6 µM, respectively. For the same molecule, the TGI in the data set on U-87 MG [2] is 102 µM; in the data set on T98G [4], 66.1 µM; in the data set on U-251 [6], 104 µM. Besides, the LC50 with U-87 MG [19] was determined as 245 µM. In addition, in the data set on T98G [20], the LC50 (lethal concentration 50%) was found to be 200 µM. Moreover, in the data set on U-251 [7], the CC50 amounted to 182 µM.
Turning to `O=C1CCc2ccccc2N1CCCN1CCN(C2CCCCC2)CC1`, the Ki on D(2) dopamine receptor is 25.1 µM.
